Assay results as given in article PMC10112938 (Hypertension (Dallas, Tex. : 1979), 2023).

Legend:
adenosine A2B receptor [1] = target: T1, adenosine A2B receptor (Homo sapiens, UniProt P29275); test: HTRF […]', […]'-cAMP assay in HEK293 cells expressing human A2B receptors; assay type: cell-based
T1 sequence (P29275 1-332): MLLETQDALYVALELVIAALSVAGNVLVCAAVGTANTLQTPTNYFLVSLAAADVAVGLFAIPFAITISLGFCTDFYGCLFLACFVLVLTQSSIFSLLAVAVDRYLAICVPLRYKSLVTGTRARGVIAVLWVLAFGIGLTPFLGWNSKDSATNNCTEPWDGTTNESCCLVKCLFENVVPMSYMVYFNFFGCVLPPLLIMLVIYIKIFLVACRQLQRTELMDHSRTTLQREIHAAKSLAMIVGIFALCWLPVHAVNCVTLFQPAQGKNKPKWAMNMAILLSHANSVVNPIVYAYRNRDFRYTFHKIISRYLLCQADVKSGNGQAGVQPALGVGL

adenosine A2B receptor [2] = target: T1, adenosine A2B receptor; test: as above; assay type: cell-based; remark: listed apart in the source

CCCn1c(=O)c2[nH]c(-c3ccc(OCC(=O)Nc4ccc(C#N)cc4)cc3)nc2n(CCC)c1=O [MRS 1754]
HTRF 3',5'-cAMP assay in HEK293 cells expressing human A2B receptors; antagonism (adenosine A2B receptor [1]): 1 µmol/L

O=c1[nH]cnc2c1ncn2[C@@H]1O[C@H](CO)[C@@H](O)[C@H]1O [inosine]
HTRF 3',5'-cAMP assay in HEK293 cells expressing human A2B receptors; response a (adenosine A2B receptor [2]): 3 to 10 µmol/L
